Data from ChEMBL document CHEMBL1201862, “PubChem BioAssay data set” (2004).
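Cultured in 96-well plates, cells were exposed to test compound for 48 hours across five concentrations. GI50 = concentration required for 50% inhibition of growth.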 Activity calls are given as the source filed them. No stated cut-off is given here; in the data, active = GI50 up to about 1.1 µM and inactive = higher.

Experiments:
Experiment in all cases: NCI anticancer screen, dose series, 48 h
NCI/ADR-RES = test system: NCI/ADR-RES
SR = test system: SR
MDA-MB-231 = test system: MDA-MB-231
SF-295 = test system: SF-295
MCF7 = test system: MCF7
OVCAR-3 = test system: OVCAR-3
TK-10 = test system: TK-10
M14 = test system: M14
ACHN = test system: ACHN
UO-31 = test system: UO-31
SF-268 = test system: SF-268
HOP-92 = test system: HOP-92
OVCAR-8 = test system: OVCAR-8
PC-3 = test system: PC-3
SF-539 = test system: SF-539
NCI-H23 = test system: NCI-H23
OVCAR-5 = test system: OVCAR-5
A498 = test system: A498
Malme-3M = test system: Malme-3M
HOP-18 = test system: HOP-18

| SMILES | GI50 (NCI/ADR-RES) | GI50 (SR) | GI50 (MDA-MB-231) | GI50 (SF-295) | GI50 (MCF7) | GI50 (OVCAR-3) | GI50 (TK-10) | GI50 (M14) | GI50 (ACHN) | GI50 (UO-31) | GI50 (SF-268) | GI50 (HOP-92) | GI50 (OVCAR-8) | GI50 (PC-3) | GI50 (SF-539) | GI50 (NCI-H23) | GI50 (OVCAR-5) | GI50 (A498) | GI50 (Malme-3M) | GI50 (HOP-18) |
| --- | --- | --- | --- | --- | --- | --- | --- | --- | --- | --- | --- | --- | --- | --- | --- | --- | --- | --- | --- | --- |
| COC(=O)N1CC2C3C4CC(C(c5ccccc5)=C4c4ccccc4)C3C21 (stereo unspecified) | 16.8 µM (inactive) | 11.1 µM (inactive) | 7.35 µM (inactive) | 13.4 µM (inactive) | 20 µM (inactive) | 15.5 µM (inactive) | 15.8 µM (inactive) | 26.8 µM (inactive) | 23.3 µM (inactive) | 12.8 µM (inactive) | 16.3 µM (inactive) | 11.7 µM (inactive) | 17.8 µM (inactive) | 10 µM (inactive) | 13.8 µM (inactive) | 20.9 µM (inactive) | 27.7 µM (inactive) | – | – | – |
| CCOC(=O)C[n+]1ccc2c([nH]c3cc(OC)ccc32)c1C | > 100 µM (inactive) | – | – | 69.2 µM (inactive) | > 95.5 µM (inactive) | > 79.1 µM (inactive) | – | – | – | > 39.4 µM (inactive) | > 100 µM (inactive) | > 70.3 µM (inactive) | > 87.1 µM (inactive) | – | > 100 µM (inactive) | > 100 µM (inactive) | > 100 µM (inactive) | > 81.5 µM (inactive) | > 100 µM (inactive) | > 100 µM (inactive) |
| Cc1ccc(OP2(=O)Oc3ccc4ccccc4c3CN2c2ccc(Cl)cc2)cc1C (stereo unspecified) | > 100 µM (inactive) | – | – | > 100 µM (inactive) | > 100 µM (inactive) | > 100 µM (inactive) | – | – | – | > 100 µM (inactive) | > 100 µM (inactive) | > 100 µM (inactive) | > 100 µM (inactive) | – | > 100 µM (inactive) | > 100 µM (inactive) | > 100 µM (inactive) | > 100 µM (inactive) | > 100 µM (inactive) | > 100 µM (inactive) |
| O=[N+]([O-])c1cnccc1-n1nnc2ccccc21 | 20.2 µM (inactive) | – | – | 20.2 µM (inactive) | 13.4 µM (inactive) | 17.8 µM (inactive) | – | – | – | 19.4 µM (inactive) | 18.8 µM (inactive) | 18.8 µM (inactive) | 17.7 µM (inactive) | – | 20.5 µM (inactive) | 18.2 µM (inactive) | 32.1 µM (inactive) | 28.3 µM (inactive) | 17.3 µM (inactive) | 14.1 µM (inactive) |
| Cc1ccccc1NC(=O)C(=O)C(C1OC(=O)c2ccccc21)[N+](=O)[O-] (stereo unspecified) | – | > 100 µM (inactive) | – | > 100 µM (inactive) | – | – | > 100 µM (inactive) | > 100 µM (inactive) | > 100 µM (inactive) | > 100 µM (inactive) | > 100 µM (inactive) | > 100 µM (inactive) | > 100 µM (inactive) | – | > 100 µM (inactive) | > 100 µM (inactive) | > 100 µM (inactive) | > 100 µM (inactive) | – | – |
| S=C(NCCCCCCNC(=S)Nc1c2ccccc2nc2ccccc12)Nc1c2ccccc2nc2ccccc12 | > 88.1 µM (inactive) | – | – | 68.4 µM (inactive) | 49 µM (inactive) | > 90.2 µM (inactive) | – | – | – | > 86.3 µM (inactive) | > 100 µM (inactive) | 52.4 µM (inactive) | 89.9 µM (inactive) | – | 70.1 µM (inactive) | > 100 µM (inactive) | > 84.1 µM (inactive) | > 91.8 µM (inactive) | > 100 µM (inactive) | > 100 µM (inactive) |
| O=C(O)C1CCC(=O)N1S(=O)(=O)c1ccccc1 (stereo unspecified) | > 100 µM (inactive) | – | – | > 100 µM (inactive) | > 100 µM (inactive) | > 100 µM (inactive) | – | – | – | > 100 µM (inactive) | > 96.2 µM (inactive) | 99.1 µM (inactive) | > 100 µM (inactive) | – | > 100 µM (inactive) | > 100 µM (inactive) | > 100 µM (inactive) | > 100 µM (inactive) | > 100 µM (inactive) | > 100 µM (inactive) |
| CSCSCC(N)CO.Cc1[nH]c(=O)[nH]c(=O)c1/C=C/C(=O)O | > 625 µM (inactive) | – | – | 582 µM (inactive) | > 625 µM (inactive) | > 625 µM (inactive) | – | – | – | > 625 µM (inactive) | > 625 µM (inactive) | 583 µM (inactive) | 492 µM (inactive) | – | > 625 µM (inactive) | > 625 µM (inactive) | > 625 µM (inactive) | > 625 µM (inactive) | > 625 µM (inactive) | > 625 µM (inactive) |
| C=CC1(NC(=O)c2ccccc2)CCC(C(C)(C)C)CC1 (stereo unspecified) | 19.6 µM (inactive) | – | – | 7.26 µM (inactive) | 30.8 µM (inactive) | 29.6 µM (inactive) | – | – | – | 22 µM (inactive) | 43.2 µM (inactive) | – | 49.7 µM (inactive) | – | 44.3 µM (inactive) | 32 µM (inactive) | 28.1 µM (inactive) | 48.2 µM (inactive) | 34.2 µM (inactive) | 47.5 µM (inactive) |
| O=c1oc2cc(O)ccc2c2oc3cc(O)ccc3c12 [COUMESTROL] | 108 µM (inactive) | – | – | 76 µM (inactive) | 96.8 µM (inactive) | 45.2 µM (inactive) | – | – | – | 48.3 µM (inactive) | 53.7 µM (inactive) | > 118 µM (inactive) | 70 µM (inactive) | – | 56.6 µM (inactive) | 58.5 µM (inactive) | > 125 µM (inactive) | 0.248 µM (active) | 79.6 µM (inactive) | > 125 µM (inactive) |
